Source: patent EP0364819A2, “LHRH analogs” (The Administrators of The Tulane Educational Fund, priority 1988, dated 1990)

Tests used:
[1] = test system: dispersed rat pituitary cell superfusion system; assay: LH release in dispersed rat pituitary cell superfusion system (LHRH agonistic activity); format: cell-based; conditions: peptide infused for 3 minutes at various concentration; LH released compared to that released by 3 nM LHRH
Description: The ability of compounds to influence LH release in vitro is assayed by using a superfused rat pituitary cell system [S. Vigh and A. V. Schally, Peptides, 5 Suppl.
The peptide was infused for 3 minutes at various concentration, and the amount of LH released was compared to that released by 3 nM LHRH.

[2] = molecular target: T1, membrane receptors of human breast cancer cells (Homo sapiens, UniProt P30968); assay: Receptor binding to human breast cancer cell membranes with 125I-labeled [D-Trp6]LHRH; conditions: high affinity binding sites, ¹²⁵l-labeled [D-Trp⁶]LHRH
T1 construct: human prostate and breast cancer cell membranes; endogenous in cells
T1 sequence (P30968 1-328): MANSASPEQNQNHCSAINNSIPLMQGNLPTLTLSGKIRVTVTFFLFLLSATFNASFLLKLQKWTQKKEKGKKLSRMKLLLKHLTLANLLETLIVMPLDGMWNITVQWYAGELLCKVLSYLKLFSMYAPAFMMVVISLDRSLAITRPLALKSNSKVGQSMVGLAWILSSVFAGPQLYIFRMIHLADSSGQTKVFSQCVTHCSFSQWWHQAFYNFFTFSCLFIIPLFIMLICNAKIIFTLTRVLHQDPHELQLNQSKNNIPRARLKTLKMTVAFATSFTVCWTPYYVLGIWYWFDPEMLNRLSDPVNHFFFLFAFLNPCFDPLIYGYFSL
Description: (c)Affinity for peptides to human prostate and breast cancer cell membranes.
(§1) This is determined by using labelled LHRH and [D-Trp⁶]LHRH. The assay is carried out similarly to that described by T. Kadar et al., Proc. Natl. Acad. Sci. USA, 85, 890-894 (1988).
(§2) Table 2 presents the antiovulatory activity of the claimed compounds having LHRH-inhibiting properties. The inhibitory action was determined in vivo, in 4-day cycling rats as described [A. Corbin and C. W. Beattie, Endocr. Res. Commun., 2, 1-23 (1975)]. Affinities of the claimed compounds to membrane receptors of rat pituitary and human breast cancer cells are also given in Tables 1 and 2 as determined by using [[…],D-Trp⁶]LHRH.

[3] = molecular target: T2, membrane receptors of rat pituitary (Rattus norvegicus, UniProt P30969); assay: Receptor binding to rat pituitary membranes with 125I-labeled [D-Trp6]LHRH; conditions: high affinity binding sites, pituitary of male rats, ¹²⁵l-labeled [D-Trp⁶]LHRH
T2 construct: membrane receptors of rat pituitary; from tissue; host or cells: rat pituitary membranes
T2 sequence (P30969 1-327): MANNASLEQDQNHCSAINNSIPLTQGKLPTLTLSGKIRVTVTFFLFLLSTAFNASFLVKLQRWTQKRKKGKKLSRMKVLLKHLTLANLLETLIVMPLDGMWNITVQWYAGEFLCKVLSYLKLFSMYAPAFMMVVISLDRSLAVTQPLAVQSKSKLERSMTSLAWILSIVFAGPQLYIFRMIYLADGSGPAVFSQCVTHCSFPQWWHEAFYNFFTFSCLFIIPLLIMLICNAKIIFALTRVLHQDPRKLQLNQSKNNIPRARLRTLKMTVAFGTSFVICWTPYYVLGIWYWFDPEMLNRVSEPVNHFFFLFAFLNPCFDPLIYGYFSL
Description: as §1, §2

4-day cycling rats = assay: In vivo antiovulatory activity in 4-day cycling rats; conditions: Dose 3 µg/rat; 4-day cyclic rats
Description: This activity of the peptides is determined in 4-day-cycling rats as described [A. Corbin and C. W.Beattie, Endocr. Res. Commun. 2, 1-23(1975)].
as §2

[4] = test system: rat mammary tumor cell line MT-4; assay: Inhibition of 3H-thymidine incorporation into DNA of MT-4 monolayer cultures; format: cell-based; conditions: for DPM/Well x1000: mean +/- standard error
Description: (d) Ability of peptides of Formula I to inhibit incorporation of [³H]thymidine into DNA of monolayer cultures the rat mammary tumor cell line MT-4
This is assayed as described [V. K. Sondak et al., Cancer Research, 44, 1725-1728 (1984); F. Holzel et al., J. Cancer Res. Clin. Oncol. 109, 217-226 (1985); M. Albert et al., J. Cancer Res. Clin. Oncol. 109, 210-216 (1985)].
To obtain information about the cytotoxic properties of the compounds, the inhibition of ³H-thymidine incorporation into DNA of monolayer cultures of the rat mammary tumor cell line MT-4 was studied. Experiments started with 100 K MT-4 cells/plate on day 0. Dose was changed 3 times, total incubation time with the sample was 5 days. 1µCu ³H-thymidine/ml was added on day 4.

[5] = Table 2, antagonistic analogues
[6] = DME Medium + 0% Serum (plus additives), Dose 1 ng/ml (6x10⁻¹⁰M)
[7] = DME Medium + 0% Serum (plus additives), Dose 10 ng/ml
[8] = DME Medium + 0% Serum (plus additives), Dose 100 ng/ml
[9] = DME Medium + 0% Serum (plus additives), Dose 1000 ng/ml
[10] = DME Medium + 0% Serum (plus additives), Dose 2000 ng/ml
[11] = DME Medium + 10% Serum, Dose 1 ng/ml (6x10⁻¹⁰M)
[12] = DME Medium + 10% Serum, Dose 10 ng/ml
[13] = DME Medium + 10% Serum, Dose 100 ng/ml
[14] = DME Medium + 10% Serum, Dose 1000 ng/ml
[15] = DME Medium + 10% Serum, Dose 2000 ng/ml

## pGlu-His-Trp-Ser-Tyr-D-Lys[Cu⁺⁺) POL)₂(DL-A₂pr)]-Leu-Arg-Pro-Gly-NH₂ [XVIII]
[1]
  Hormonal activity* LH responses rel. to LHRH (= 1): 9
[2]; Table 1, agonistic analogues
  Binding affinity, Ka1, for membrane receptors of cancer cells: 3.005 nM⁻¹
[3]; Table 1, agonistic analogues
  Binding affinity, Ka1, for membrane receptors of pituitary: 5.817 nM⁻¹

## pGlu-His-Trp-Ser-Tyr-D-Lys[(Cu⁺⁺)(POLP)₂(DL-A₂bu)]-Leu-Arg-Pro-Gly-NH₂ [Example XVI]
[1]
  Hormonal activity* LH responses rel. to LHRH (= 1): 1.5
[2]; Table 1, agonistic analogues
  Binding affinity, Ka1, for membrane receptors of cancer cells: 5.038 nM⁻¹
[3]; Table 1, agonistic analogues
  Binding affinity, Ka1, for membrane receptors of pituitary: 9.751 nM⁻¹

## Ac-D-Nal(2)-D-Phe(4Cl)-D-Pal(3)-Ser-Arg-D-Lys[(Cu⁺⁺)(SAL)₂(A₂bu-Eac)]-Leu-Arg-Pro-D-Ala-NH₂ [XXVIII]
[2]; [5]
  Binding affinity, Ka1, for membrane receptors of cancer cells: 0.192 nM-¹

## Ac-D-Nal(2)D-Phe(4Cl)-D-Pal(3)-Ser-Arg-D-Lys[(Ni⁺⁺)(SAL)₂(DL-A₂pr)]-Leu-Arg-Pro-D-Ala-NH₂ [XIII]
[2]; [5]
  Binding affinity, Ka1, for membrane receptors of cancer cells: 0.878 nM-¹
[3]; [5]
  Binding affinity, Ka1, for membrane receptors of pituitary: 1.821 nM-¹

## Ac-D-Nal(2)-D-Phe(4Cl)-D-Trp-Ser-Arg-D-Lys[(Cu⁺⁺)(SAL)₂(DL-A₂pr)]-Leu-Arg-Pro-D-Ala-NH₂ [XII]
[2]; [5]
  Binding affinity, Ka1, for membrane receptors of cancer cells: 4.951 nM-¹
4-day cycling rats
  Hormonal activity* %Blockade of ovulation: 20%
[3]; [5]
  Binding affinity, Ka1, for membrane receptors of pituitary: 9.183 nM-¹

## pGlu-His-Trp-Ser-Tyr-D-Lys[(PtCl₂)(DL-A₂pr)]-Leu-Arg-Pro-Gly-NH₂ [Example III]
[1]
  Hormonal activity* LH responses rel. to LHRH (= 1): 55
[2]; Table 1, agonistic analogues
  Binding affinity, Ka1, for membrane receptors of cancer cells: 1.743 nM⁻¹
[3]; Table 1, agonistic analogues
  Binding affinity, Ka1, for membrane receptors of pituitary: 3.285 nM⁻¹

## pGlu-His-Trp-Ser-Tyr-D-Lys[(Cu⁺⁺)(PEN) ₂(A₂pr)]-Leu-Arg-Pro-Gly-NH₂ [Example XXI]
[1]
  Hormonal activity* LH responses rel. to LHRH (= 1): 10.6
[2]; Table 1, agonistic analogues
  Binding affinity, Ka1, for membrane receptors of cancer cells: 5.096 nM⁻¹
[3]; Table 1, agonistic analogues
  Binding affinity, Ka1, for membrane receptors of pituitary: 10.989 nM⁻¹

## pGlu-His-Trp-Ser-Tyr-D-Lys[(Cu⁺⁺)(SAL) ₂(A₂pr)]-Leu-Arg-Pro-Gly-NH₂ [Example VII]
[1]
  Hormonal activity* LH responses rel. to LHRH (= 1): 10
[2]; Table 1, agonistic analogues
  Binding affinity, Ka1, for membrane receptors of cancer cells: 3.589 nM⁻¹
[4]; [6]
  %Inhibition: 41%
  DPM/Well x1000: 249+/-30.5 DPM/Well x1000
[4]; [7]
  %Inhibition: 42%
  DPM/Well x1000: 242+/-32.1 DPM/Well x1000
[4]; [8]
  %Inhibition: 56%
  DPM/Well x1000: 186+/-13.2 DPM/Well x1000
[4]; [9]
  %Inhibition: 52%
  DPM/Well x1000: 204+/-40.9 DPM/Well x1000
[4]; [10]
  %Inhibition: 41%
  DPM/Well x1000: 249+/-45.1 DPM/Well x1000
[4]; [11]
  %Inhibition: 53%
  DPM/Well x1000: 48+/-8.6 DPM/Well x1000
[4]; [12]
  %Inhibition: 61%
  DPM/Well x1000: 40+/-6.7 DPM/Well x1000
[4]; [13]
  %Inhibition: 59%
  DPM/Well x1000: 42+/-10.4 DPM/Well x1000
[4]; [14]
  %Inhibition: 65%
  DPM/Well x1000: 36+/-5.1 DPM/Well x1000
[4]; [15]
  %Inhibition: 62%
  DPM/Well x1000: 39+/-4.6 DPM/Well x1000
[4]; at a concentration of 6x10.⁻¹⁰ M, total incubation time 5 days
  inhibition of ³H-thymidine incorporation into DNA: strong inhibitory effect
[3]; Table 1, agonistic analogues
  Binding affinity, Ka1, for membrane receptors of pituitary: 7.968 nM⁻¹

## pGlu-His-Trp-Ser-Tyr-D-Lys[(Cu⁺⁺)(FUR)₂(DL-A₂pr)]-Leu-Arg-Pro-Gly-NH₂ [XVII]
[1]
  Hormonal activity* LH responses rel. to LHRH (= 1): 10
[2]; Table 1, agonistic analogues
  Binding affinity, Ka1, for membrane receptors of cancer cells: 0.536 nM⁻¹
[3]; Table 1, agonistic analogues
  Binding affinity, Ka1, for membrane receptors of pituitary: 1.770 nM⁻¹

## pGlu-His-Trp-Ser-Tyr-D-Lys[(Cu⁺⁺)(SAL)₂(DL-A₂bu)]-Leu-Arg-Pro-Gly-NH₂ [XIV]
[1]
  Hormonal activity* LH responses rel. to LHRH (= 1): 25
[2]; Table 1, agonistic analogues
  Binding affinity, Ka1, for membrane receptors of cancer cells: 1.628 nM⁻¹
[3]; Table 1, agonistic analogues
  Binding affinity, Ka1, for membrane receptors of pituitary: 5.589 nM⁻¹
